This is an account of results in patent US8377455B2, “Biosurfactant composition produced by a new Bacillus licheniforms strain, uses and products thereof” (priority 2008, dated 2013).

Read-outs that look alike come from different tables or passages of the source.

One assay has as its system E. coli CFT073 biofilm. It counts as cell-based, Escherichia coli. The note with it: for concentration for eradication of biofilm: 24 h exposure. The method, then:
(§1) E. coli CFT073 and E. coli O157:H7 were grown on Luria Bertani agar (LB, EMD Chemicals Inc.), P. aeruginosa PA14 and S. aureus were grown on TSB agar. Susceptibility testing of metals was performed in Minimal Salts Vitamins Glucose (MSVG) according to Teitzel and Parsek (2003), while Polycide susceptibility testing was performed in Phosphate Buffered Saline (PBS).
Extracted V9T14 biosurfactant was stored under the chemical hood providing solvent evaporation until dryness. The biosurfactant powder was homogenized using a porcelain mortar and a pestle. V9T14 was dissolved in PBS and pH was adjusted to 7.5 with 1 N NaOH. Volume was adjusted to match a final concentration of 5000 μg/mL.
(§2) AgNO3 (Sigma) and CuSO4 (Sigma) were dissolved in double distilled water (ddH2O) to 150 mM and 500 mM respectively. Polycide was diluted in PBS to 25%. Solutions were sterile filtered and stored at 4° C. Serial two-fold dilutions were performed to create the challenge plate.
(§3) Biofilms were grown in the Calgary Biofilm Device (CBD) as described above. Starting from cryogenic stock, the strain was streaked out twice on TSA, and an inoculum was prepared by suspending colonies from the secondary agar subculture in 0.9% saline to match a 1.0 McFarland standard. This standard inoculum was diluted 1/30 in LB broth.
(§4) 150 μL of this inoculum was transferred into each well of a 96-well plate, and the sterile peg lid of the CBD was inserted into the plate. The inoculated device was then incubated at 125 rpm, for 24 h at 37° C. and 95% relative humidity. In an alternative set of experiments, biofilms were grown for 48 h before silver exposure and spent medium was changed with fresh medium after 24 h.
(§5) Following this period of incubation, biofilms were rinsed once with 0.9% saline (200 μL/well) to remove loosely adherent planktonic cells. Biofilm formation was evaluated by breaking off four pegs from each device after it has been rinsed. Biofilms were disrupted from pegs into 200 μL/well of LB supplemented with 1% Tween 20 using an ultrasonic cleaner for a period of 10 min (Aquasonic model 250T, VWR Scientific, Mississauga, Canada) as described above. The disrupted biofilms were serially diluted in 0.9% saline and plated on LB agar for viable cell counting. An initial set of quality control assays were carried out to ascertain that the strain used in this study formed equivalent biofilm on the CBD pegs as described in Harrison (2008).
(§6) The challenge plate of biocides, antibiotics and biosurfactant was made in a 96-well plate. Biocides were serially two-fold diluted in PBS and V9T14 biosurfactant was added to each well at the final concentration of 5 μL/mL. Antibiotics were similarly diluted in Muller-Hinton broth, while metals were diluted in MSVG.
Biofilms that have been grown on lids of the CBD and rinsed once in 0.9% saline were inserted in the challenge plates. Following the exposure time at 37° C., biofilms were rinsed once with 0.9% saline (200 μL/well) and then placed in a microtiter “recovery” plate that contained 200 μL/well of neutralizing medium (TSB supplemented with 1% Tween 20, 2.0 g/L reduced glutathione, 1.0 g/L L-histidine, 1.0 g/L L-cysteine). The recovery plate was sonicated for a period of 10 min (Aquasonic model 250T, VWR Scientific, Mississauga, Canada). The disrupted biofilms were serially diluted in 0.9% saline and plated on the appropriate agar medium for viable cell counting. Plates were then incubated at 37° C. overnight and finally enumerated.

In assay [1] the test system is P. aeruginosa PA14 biofilm. The class given is cell-based, Pseudomonas aeruginosa. Here is the method: as §1, §2, §3, §4
as §5, with “(2008). […]” for “(2008).”

Assay [2] relates to planktonic E. coli CFT073. The class given is cell-based, Escherichia coli. Here is the method:
as §6, with “MSVG. When prepared, each challenge plate had 7 sterility control, 8 growth control, 11 wells containing 5 μL/mL of V9T14 biosurfactant, 11 different concentrations of single biocide (or metals) and 11 different concentrations of biocide (or metals) associated with 5 μL/mL of V9T14 biosurfactant.” for “MSVG.”
To define MBC of biocides, recovery plates were incubated at 37° C. for 24-48 h and the adsorbance (OD650 nm) was read in a microtiter plate reader.

In assay [3] the test system is S. aureus ATCC 25923 biofilm. Put plainly: High-throughput susceptibility testing of CBD biofilm to biocides/metals with or without V9T14. The class given is cell-based, Staphylococcus aureus. The note with it: 8 h exposure. The method, then:
as §1, §2, §3
150 μL of this inoculum was transferred into each well of a 96-well plate, and the sterile peg lid of the CBD was inserted into the plate. […]
Following this period of incubation, biofilms were rinsed once with 0.9% saline (200 μL/well) to remove loosely adherent planktonic cells. Biofilm formation was evaluated by breaking off four pegs from each device after it has been rinsed. […]

In the case of `O=[N+]([O-])[O-].[Ag+]` [silver, silver nitrate], the “enhancement of killing activity by presence of V9T14” value in the assay with E. coli CFT073 biofilm (2 h exposure, 3.750 mM silver, 5 μg/mL V9T14) was “about 0.6 log10”; with E. coli CFT073 biofilm (8 h exposure, 0.015 mM silver (p=0.03)) it was “about 3.2 log10”. The “silver concentration needed with V9T14 relative to silver alone (fold less)” value in the assay on E. coli CFT073 biofilm (biofilm reduced below detection limit) was found to be 258 fold. Also, the “concentration for eradication of biofilm” value in the assay on E. coli CFT073 biofilm (silver alone) stood at 7.5 mM; with E. coli CFT073 biofilm (silver with 5 μg/mL V9T14 added), 0.029 mM. Further, the “increase of killing efficacy by V9T14” value in the assay with E. coli CFT073 biofilm (solution prepared 48 h before, 4 h exposure (p=0.0007)) is recorded as “about 2.3 log10”. Also, the “concentration required to eradicate the biofilm” value is listed as 0.469 mM in assay [1] (silver alone, 8 h exposure) and 0.117 mM in assay [1] (silver with 5 μg/mL V9T14, 8 h exposure). Further, the “metal concentration needed with V9T14 relative to silver alone (fold less)” value in assay [2] (5 μg/mL V9T14, 24 h) turned out to be 64 fold. Further, in assay [2] (silver alone, 24 h), the “concentration from which complete inhibition of growth was observed” value is reported as 7.5 mM.

Consider `O=S(=O)([O-])[O-].[Cu+2]` [copper, cupric sulfate], for which the “maximum increase of killing with V9T14” value in assay [1] is “about 2.2 log10”. Further, in assay [3], the “maximum reduction of viable cell count with V9T14” value was “about 2.4 log10” and the “reduction of the concentration needed to bring biofilm below detectable count when V9T14 present” value was “about 95%”.
